Data set [1] deals with UFMylation pathway (UBA5, UFC1, UFM1, c-Myc) in MV4-11 cells. Put plainly: Western blot of UFMylation pathway in MV4-11 cells. The format is cell-based. Particulars: 8 hours. The method, then:
Post-treatment (8 hours) of MV4-11 cells with I-1 test compound at 1, 0.5, 0.25, 0.1 and 0 μM concentrations, all cells were lysed with radioimmunoprecipitation assay (RIPA) buffer: 20 mM Tris pH 7.4, 150 mM NaCl, 0.5% deoxycholate, 1% Triton X-100, 0.1% sodium dodecyl sulfate (SDS). Total protein was measured using BCA assay (Sigma). In each assay, clarified protein were resolved on a 4%-15% polyacrylamideSDS gel and transferred to a PVDF membrane (Bio-Rad). The membranes were blocked with 5% solution of skim milk powder in TBST and incubated for at least 1 hour followed by an overnight incubation at 4° C. in primary antibody (1:1000 dilution). Blots were probed with antibodies against UBA5, UFM1, UFC1, c-Myc, and beta-actin was used as a loading control (Santa Cruz Biotechnology catalog # sc-835). The PVDF membrane then washed with TBST (3 times for 5 minutes). A horseradish peroxides (HRP)-conjugated goat anti-mouse IgG secondary antibodies (Cell signaling Catalog #7076S) was applied to the membrane (1:5000 dilution) and incubated for 1 hour at room temperature. The blots were then rinsed again 3 times in TBST for 10 minutes. Bands were visualized using clarity western ECL substrate luminal/enhancer solution and peroxide solution 1:1 ratio for HRP secondary antibody, according to the manufacturer's instructions (Bio-Rad) and analyzed using Image lab software (Bio-Rad).

The nature of data set [2]: Intrinsic clearance in mouse hepatocytes.
Description: A stock of 100 μM test compound was prepared by diluting the 10 mM I-1 test compound in DMSO with a solution of 50% acetonitrile and 50% water. In a 96-well non-coated plate, 198 μL of hepatocytes was pipetted, and the plate was placed in the incubator on an orbital shaker to allow the hepatocytes to warm for 10 minutes. To this solution 2 μL of the 100 μM I-1 was added to start the reaction, and the plate was placed on an orbital shaker. […] The reaction solution was then vortexed for 10 minutes and centrifuged at 4,000 rpm for 30 minutes at 4° C. Next, 400 μL of the supernatant was transferred to one new 96-well plate, centrifuged at 4,000 rpm for 30 minutes at 4° C., and 100 μL of the supernatant was transferred to a new 96-well plate ensuring the pellet was not disturbed. 100 μL of ultrapure water was added to all samples for analysis by LC-MS/MS.
Injection volume was 10 μL.
A further data set relates to ATCC3034. Description: Cell viability, medulloblastoma ATCC3034. Type of data set: cell-based. Particulars: medulloblastoma cell line. Here is the method: (§1) The anti-cancer efficacy of exemplary compounds of the application were assessed in vitro against different cancer cell lines. Cell viability was examined following treatment at various concentrations of inhibitor (0.097656-50 μM) using a CellTiter-Blue® cell viability assay. 1×10^4 cells/well were plated in 96-well assay plates in culture medium. All cells were grown in DMEM, IMDM and RPMI-1640 supplemented with 10% fetal bovine serum (FBS). In some instances, FBS was removed for periods ranging from 16-24 hours, and re-introduced with test compound addition. After 24 hrs, test compounds and vehicle controls were added to appropriate wells such that the final volume was 100 μl in each well. The cells were cultured for the desired test exposure period (72 hours) at 37° C. and 5% CO2. The assay plates were removed from […] incubator and 20 μl/well of CellTiter-Blue® Reagent was added. The plates were incubated using standard cell culture conditions for 1-4 hours. Afterwards, the plates were shaken for 10 seconds and florescence was recorded at 560/590 nm using a Cytation 3 spectrophotometer. IC50 values were determined using non-linear regression analysis with GraphPad Prism 6.0 (GraphPad Software Inc.). […]

The subject of the next data set is LN-229. Put plainly: Cell viability, glioblastoma LN-229. Type of data set: cell-based. Particulars: Homo sapiens, glioblastoma cell line. The method, then: The anti-cancer efficacy of exemplary compounds of the application were assessed in vitro against different cancer cell lines. […] 1×10^4 cells/well were plated in 96-well assay plates in culture medium. […] In some instances, FBS was removed for periods ranging from 16-24 hours, and re-introduced with test compound addition. After 24 hrs, test compounds and vehicle controls were added to appropriate wells such that the final volume was 100 μl in each well. The cells were cultured for the desired test exposure period (72 hours) at 37° C. and 5% CO2. The assay plates were removed from […] incubator and 20 μl/well of CellTiter-Blue® Reagent was added. The plates were incubated using standard cell culture conditions for 1-4 hours. Afterwards, the plates were shaken for 10 seconds and florescence was recorded at 560/590 nm using a Cytation 3 spectrophotometer. IC50 values were determined using non-linear regression analysis with GraphPad Prism 6.0 (GraphPad Software Inc.).

For a further data set, the system named is D425. Description: Cell viability, medulloblastoma D425. The format is cell-based. The conditions noted are these: medulloblastoma cell line. Here is the method:
as §1

Another data set concerns MOLM14. Description: Cell viability, AML MOLM14. The format is cell-based. The conditions noted are these: Homo sapiens, MOLM-14, Table 4. The method, then: as §1
For a further data set, the system named is kinases. Description: KINOMEscan kinase screen (DiscoverX). The conditions noted are these: 10 μM. The format is binding. Here is the method: For most assays, kinase-tagged T7 phage strains were grown in parallel in 24-well blocks in an E. coli host derived from the BL21 strain. E. coli were grown to log-phase and infected with T7 phage from a frozen stock (multiplicity of infection=0.4) and incubated with shaking at 32° C. until lysis (90-150 minutes). The lysates were centrifuged (6,000×g) and filtered (0.2 μm) to remove cell debris. The remaining kinases were produced in HEK-293 cells and subsequently tagged with DNA for qPCR detection. […] The liganded beads were blocked with excess biotin and washed with blocking buffer (SeaBlock (Pierce), 1% BSA, 0.05% Tween 20, 1 mM DTT) to remove unbound ligand and to reduce non-specific phage binding. […] I-1 test compound was prepared as 40× stocks in 100% DMSO and directly diluted into the assay. All reactions were performed in polypropylene 384-well plates in a final volume of 0.02 mL. […] The kinase concentration in the eluates was measured by qPCR. […]
I-1 test compound was tested at 10 μM, and results for primary screen binding interactions are reported as […] where lower numbers indicate stronger hits in the matrix. Ctrl is calculated with the following formula:
test compound=I-1 negative control=DMSO (100% Ctrl) positive control=control compound (0% Ctrl)

The subject of data set [3] is primary human fibroblast cells (PHF). Description: CellTiter-Blue cell viability, PHF. The format is cell-based. The conditions noted are these: non-cancerous, 72 hours. The method, then:
The anti-cancer efficacy of exemplary compounds of the application were assessed in vitro against different cancer cell lines. Cell viability was examined following treatment at various concentrations of inhibitor (0.097656-50 μM) using a CellTiter-Blue® cell viability assay. 1×10^4 cells/well were plated in 96-well assay plates in culture medium. All cells were grown in DMEM, IMDM and RPMI-1640 supplemented with 10% fetal bovine serum (FBS). In some instances, FBS was removed for periods ranging from 16-24 hours, and re-introduced with test compound addition. After 24 hrs, test compounds and vehicle controls were added to appropriate wells such that the final volume was 100 μl in each well. The cells were cultured for the desired test exposure period (72 hours) at 37° C. and 5% CO2. The assay plates were removed from 3° C. incubator and 20 μl/well of CellTiter-Blue® Reagent was added. The plates were incubated using standard cell culture conditions for 1-4 hours. Afterwards, the plates were shaken for 10 seconds and florescence was recorded at 560/590 nm using a Cytation 3 spectrophotometer. IC50 values were determined using non-linear regression analysis with GraphPad Prism 6.0 (GraphPad Software Inc.).
A general note: The colour change of resazurin is a common sign of viable cells or microbes.

The term half-life denotes the time needed for the level to fall by half in the phase considered. Read a high half-life as slow loss. The term IC50 denotes the midpoint of a concentration-inhibition curve. A low value points to greater potency.

Structures are written as SMILES. “Also recorded” adds a separate entry of the source.

With `O=S(=O)(c1c(F)c(F)c(F)c(F)c1F)N(Cc1ccc(F)cc1)C1CC1` [Compound I-1, N-cyclopropyl-2,3,4,5,6-pentafluoro-N-(4-fluorobenzyl)benzenesulfonamide], the “concentration at which UFM1-UFC1 conjugate levels decrease” value in data set [1] is ≥ 250 nM. In addition, the “concentration at which c-Myc levels decrease” value in data set [1] is ≥ 250 nM. Moreover, in data set [1], the “concentration giving complete wipe-out of UBA5 total protein” value is “greater than 500 nM”. Also, the “concentration giving reduction of UBA5 total protein levels” value in data set [1] worked out at 250 nM. Further, in data set [2], the half-life at 1 μM was 3.07 h. In addition, the IC50 with ATCC3034 was 800 nM; in the data set on LN-229 it was 3030 nM; in the data set with D425, 800 nM; with MOLM14, 1700 to 2500 nM; in data set [3] it was 3400 nM. Further, in the data set with kinases, the “competitive binding / inhibition of kinase targets” value is given as “negligible competitive binding; also recorded: does not inhibit”.

The values are drawn from US20200277268A1, “PENTAFLUOROPHENYL SULFONAMIDE COMPOUNDS, COMPOSITIONS AND USES THEREOF” (DALRIADA THERAPEUTICS INC., priority 2017, published 2020).
